# According to patent publication US20260097049A1, “C[…] AND METHODS OF USE FOR TREATMENT AND PREVENTION OF CANCER” (BlackStone Therapeutics, LLC, priority 2022, published 2026):
# What was measured:
# Format in all cases: cell-based
# PANC-1 = assay: CellTiterGlo cell viability, PANC-1 cells; settings: Homo sapiens, 72 h
# Experimental: The IC50 values for (R)-H4CBD, (S)-H4CBD, H4CBDV racemic mixture, and bortezomib were determined. Compound treatment of cells started one day after seeding with a final DMSO concentration of 0.1% and was performed by nanodrop-dispensing using a Tecan Dispenser. 0.1% DMSO (solvent) and Staurosporine (1,0E-05M) served as high control (100% viability) and low control (0% viability), respectively. For the assays, cells were seeded in white cell culture-treated flat and clear bottom multiwell plates and incubated at 37° C. overnight before compounds were added. After incubation for 72 h at 37° C. at 5% or 10% CO2 dependent on the medium, cell plates were equilibrated to room temperature for one hour, CellTiterGlo reagent (Promega) was added and luminescence was measured approximately an hour later using a luminometer.
# Raw data were converted into percent cell viability relative to the high and low control, which were set to 100% and 0%, respectively. IC50 calculation was performed using GraphPad Prism software with a variable slope sigmoidal response fitting model using 0% viability as bottom constraint and 100% viability as top constraint. IC50 results in PANC-1, MIA-PaCa2, and AsPC-1 cells for (R)-H4CBD, (S)-H4CBD, H4CBDV racemic mixture, and bortezomib are shown in FIGS. 10-12 and Table 2
# [1] = tested on: PANC-1, HPAF-II, AsPC-1, and MIA-PaCa2; assay: Cell killing against various cancer cell lines; settings: all cancer cells tested
# Experimental: Various compounds, including (R)-H4CBD and (S)-H4CBD, and H4CBDV racemic mixture, were tested for cell killing against various cancer cell lines, including PANC-1, HPAF-II, AsPC-1, and MIA-PaCa2.
# [2] = tested on: A549 Lung Carcinoma Epithelial Cells (CCL-185 from ATCC); assay: Percent viability of lung carcinoma cells; settings: Homo sapiens, A549, read-out: Percent viability of cells, Mean (%)
# Experimental: GR-X1=H4CBDV, GR-X2=(R)-H4CBD, GR-X3=(S)-H4CBD, GR-X4=HHC.
# The IC50 of the hydrogenated cannabivarin, hexahydrocannabidivarin (H4CBDV), (R)-H4CBD, (S)-H4CBD, HHC racemic mixture, and gemcitabine, paclitaxel, and 5-fluorouracil were determined in lung carcinoma cells (A549 Lung Carcinoma Epithelial Cells (CCL-185 from ATCC)) as shown in FIGS. 39-43 and Table 3.
smiles,measurement,setting,value
"CCCc1cc(O)c(C2CC(C)CCC2C(C)C)c(O)c1 (racemic) [CCL-106, hexahydrocannabidivarin]",IC50,PANC-1,789 nM
same,cytotoxicity against cancer cells,[1],shows cytotoxicity against all cancer cells tested
same,viability at 1.56 µM,[2]; agent concentration 1.56 uM,92.1%
same,viability at 3.12 µM,[2]; agent concentration 3.12 uM,95.2%
same,viability at 6.25 µM,[2]; agent concentration 6.25 uM,93.4%
same,viability at 12.5 µM,[2]; agent concentration 12.5 uM,93.6%
same,viability at 25 µM,[2]; agent concentration 25 uM,21.5%
same,viability at 50 µM,[2]; agent concentration 50 uM,5.65%
